The target in this assay is human LPA1 (Homo sapiens, UniProt Q92633). Kind of assay: In-vitro whole cell binding: competition with the ^18F tracer. Particulars: CHO cells overexpressing human LPA1; ^18F tracer 3.8 nM; room temperature 1 hr; read-out: IC50, inhibition of binding of the ^18F tracer. The protocol: The effectiveness of compounds of the present invention as LPA1 inhibitors can be determined in an LPA1 binding assay as follows: Chinese hamster ovary cells overexpressing human LPA1 were maintained in F12 medium (Gibco #11765) supplemented with 10% fetal bovine serum and 1 mg/ml hygromycin (Invitrogen #10687-010). On day of assay, 150 cm^2 flasks of subconfluent cells were harvested with TripLE Express Dissociation reagent (Gibco #12605-010), counted, centrifuged, and resuspended in ice-cold Binding Assay Buffer (BAB: 50 mM HEPES pH 7.2, 100 mM NaCl, 2 mM EDTA) at 2×10^6 cells per ml. Cells were kept on ice until use. Test compound dilution plates were prepared by serially diluting test compounds (2 mM stock in 100% DMSO, […] dilutions) in DMSO, then diluting 1:50 in BAB to generate twelve half-log test concentrations at 4× final concentration. Binding assay were carried out in non-binding surface 96-well plates (Corning #3605) at room temperature for 1 hour. […] Individual filter discs were cut out of the filter plate and counted in a gamma counter. IC50 values were determined by fitting the data to a 4-parameter logistic equation (GraphPad Prism, San Diego Calif.).

Structures are written as SMILES.

human LPA1, sequence (Q92633 whole entry): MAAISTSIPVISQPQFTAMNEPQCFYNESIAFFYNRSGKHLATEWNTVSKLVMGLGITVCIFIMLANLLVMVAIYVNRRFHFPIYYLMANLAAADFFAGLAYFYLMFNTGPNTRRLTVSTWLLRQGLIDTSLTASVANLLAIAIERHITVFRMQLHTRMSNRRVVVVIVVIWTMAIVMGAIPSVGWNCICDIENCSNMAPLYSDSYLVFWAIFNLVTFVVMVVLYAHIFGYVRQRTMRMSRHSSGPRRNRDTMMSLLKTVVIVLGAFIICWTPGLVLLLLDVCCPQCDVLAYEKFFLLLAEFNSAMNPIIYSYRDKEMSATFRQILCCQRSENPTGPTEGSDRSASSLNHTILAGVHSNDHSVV

Take `Cc1nc(-c2nnn(C)c2COC(=O)N(C)CCCCF)ccc1O[C@H]1CCC[C@H](C(=O)O)C1` [Example 14]: the IC50 stood at 24.5 nM.

For the origin of these results see US20210379210A1, “RADIOLIGANDS FOR IMAGING THE LPA1 RECEPTOR” (BRISTOL-MYERS SQUIBB COMPANY, priority 2018, published 2021).
